Broadly, the IC50 is the midpoint of a concentration-inhibition curve. The low end stands for greater potency in that assay, the high end for weaker potency in that assay.

The structures appear in SMILES notation.

The assay concerns hepatitis virus B (HBV) infection. Briefly: HepG2 NTCP assay (HBcAg staining as marker of HBV infection). It counts as cell-based. As to conditions: HepG2-NTCP cells infected with HBV, HBV core antigen (HBcAg) as marker of infection. An excerpt: The principle of the hepG2-NTCP assay is to measure the effect of a test compound on the inhibition of the hepatitis virus B (HBV) infection compared to a reference compound. To be able to infect the hepatocellular carcinoma cells (HepG2) with HBV, HepG2 cells were stably transfected with the Na+-taurocholate co-transporting polypeptide (NTCP) receptor, also referred to as Sodium/bile acid cotransporter (SLC10A1), which is necessary for HBV infection. In this assay the HBV core antigen (HBcAg) is used as a marker of HBV infection. Nuclei count is used as an indication for compound toxicity.
On day one, HepG2-NTCP cells ((Ni et al., 2014)) are seeded at 5000 cells in 50 µL per well in assay medium (DMEM high glucose supplemented with 10% non-heat inactivated (non HI) fetal bovine serum (FBS), 1% P/S, 1% L-glutamine and 1% MEM NEAA) in 384 well plate and incubated at 37°C, 5% CO2 overnight.
Compounds are prepared as 10 point serial dilutions using 1/3 dilution steps in 100% DMSO starting from 10 mM highest concentration, unless otherwise requested for very potent compounds, which started from 5mM or 1mM stock. Compounds are further diluted 1/500 in assay medium.
A negative control (vehicle: 24 wells with 0.2% DMSO) and positive control (24 wells with 100nM Myrcludex B (Cas no.: 406461-66-3), 0.2% DMSO and in 10 point DR) are included in the experiments.
On the second day, 40µl medium is removed from the cells with the plate washer (Select 405 microplate washer, Biotek). 15 µL of diluted compound series is transferred to the assay plate and cells are infected with 15 µL of HBV mix (HBV virus, 4%PEG, 1%DMSO in assay medium). The infection is performed in assay medium containing final concentration of 1% DMSO. The assay plate is incubated at 37°C, 5% CO2 overnight.
The next day, 30µl compound and HBV mix are removed from the assay plate with the plate washer and 30 µL of compound series diluted 1/500 in assay medium containing final concentration of 2.5% DMSO is added to the cell assay plate. The assay plate is incubated at 37°C, 5% CO2 for 5 days.
After 5 days of incubation, supernatant is removed from the cells with the plate washer. Cells are fixed with 50 µL of 3.7% formaldehyde added with the Well mate (Matrix technologies) and incubated for 30 min at room temperature. After fixation, cells are washed four times with phosphate buffer saline (1xPBS, 137mM NaCl, 10mM na2HPO4, 2.7mM KCl, 1.8mM KH2PO4 at pH7.4). The cells are finally subjected to HBc staining.
First, the assay plate is blocked with blocking buffer (2%FBS, 3% BSA, 0.2% TritonX100 in PBS) for 1 h at room temperature (optional to block overnight at 4°C).
After 4 washes of PBST (1XPBS + 0.05% Tween) with the plate washer, the assay plate is incubated with 30 µL diluted primary antibody (1/700 Rabbit anti-HBV core antigen, Dako, B0586 or 1/350 Rabbit anti HBV core antigen, Invitrogen, PA516368) in blocking buffer and incubated for 90 min at room temperature.
After 4 washes of PBST with the plate washer, the assay plate is incubated with 50 µL of secondary antibody (Donkey-anti-rabbit Alexa 488 antibody, Lifetechnologies A21206) 1/500 diluted in blocking buffer and incubated for 60 min at room temperature and in the dark.
The assay plate is washed 4 times with PBST on the plate washer and incubated with 50µL of DAPI (Sigma D9542, stock 5mg/mL) 1/10000 diluted in PBS for 15-30 min at room temperature and in the dark. The assay plate is now ready for read out on the InCell Analyzer 2200 (GE Healthcare).
Raw data are generated following read-out performed on InCell 2200 and are imported into the galapagos LIMS for automated calculation of percentage inhibition (PIN) and toxicity by nuclei count, using the control wells mentioned above, and creation of Dose Response curves. Table V. Hepg2 NTCP assay activity of illustrative compounds of the invention
`[2H]C([2H])([2H])Oc1cc2c(cc1Cl)-c1c(cc(C(=O)O)c(=O)n1C1CC1)C(C1(C)COC1)O2` (stereo not shown) [Compound 58, 9-chloro-1-cyclopropyl-5-(3-methyloxetan-3-yl)-2-oxo-8-(trideuteriomethoxy)-5H-chromeno[4,3-b]pyridine-3-carboxylic acid]: the IC50 lay in the range of 0.001 to 1 nM.
As for `O=C(O)c1cc2c(n(C3CC3)c1=O)-c1cc(F)c(F)cc1OC2` [Compound 59, 1-cyclopropyl-8,9-difluoro-2-oxo-5H-chromeno[4,3-b]pyridine-3-carboxylic acid], the concentration for half-maximal inhibition (IC50) is > 100 nM.
On to `O=C(O)c1cc2c(n(C3CC3)c1=O)-c1cc(Cl)c(F)cc1OC2` [Compound 60, 9-chloro-1-cyclopropyl-8-fluoro-2-oxo-5H-chromeno[4,3-b]pyridine-3-carboxylic acid], for which the IC50 is > 100 nM.
The value for `O=C(O)c1cc2c(n(C3CC3)c1=O)-c1cc(Cl)c(Cl)cc1OC2` [Compound 61, 8,9-dichloro-1-cyclopropyl-2-oxo-5H-chromeno[4,3-b]pyridine-3-carboxylic acid] was 1 to 20 nM.
In turn, `COCCCOc1cc2c(cc1C(F)(F)F)-c1c(cc(C(=O)O)c(=O)n1C1CC1)C(C(C)C)O2` (stereo not shown) [Compound 62, 1-cyclopropyl-5-isopropyl-8-(3-methoxypropoxy) -2-oxo-9-(trifluoromethyl)-5H-chromeno[4,3-b]pyridine-3-carboxylic acid] had an IC50 of 0.001 to 1 nM.
`COCCCOc1cc2c(cc1S(C)(=O)=O)-c1c(cc(C(=O)O)c(=O)n1C1CC1)C(C(C)C)O2` (stereo not shown) [Compound 63, 1-cyclopropyl-5-isopropyl-8-(3-methoxypropoxy) -9-methylsulfonyl-2-oxo-5H-chromeno[4,3-b]pyridine-3-carboxylic acid] registered an IC50 of 1 to 20 nM.
Then `CC(C)C1Oc2cc(OCC3COC3)c(F)cc2-c2c1cc(C(=O)O)c(=O)n2C1CC1` (stereo not shown) [Compound 64, 1-cyclopropyl-9-fluoro-5-isopropyl-8-(oxetan-3-ylmethoxy)-2-oxo-5H-chromeno[4,3-b]pyridine-3-carboxylic acid], with 1 to 20 nM; and `CC(C)C1Oc2cc(OCC3(C)COC3)c(F)cc2-c2c1cc(C(=O)O)c(=O)n2C1CC1` (stereo not shown) [Compound 65, 1-cyclopropyl-9-fluoro-5-isopropyl-8-[(3-methyloxetan-3-yl)methoxy]-2-oxo-5H-chromeno[4,3-b]pyridine-3-carboxylic acid], with 0.001 to 1 nM.
Then `COc1cc2c(cc1Cl)-c1c(cc(C(=O)O)c(=O)n1C1CC1)[C@@H](C1(C)COC1)O2` [Compound 66, (5S)-9-chloro-1-cyclopropyl-8-methoxy-5-(3-methyloxetan-3-yl)-2-oxo-5H-chromeno[4,3-b]pyridine-3-carboxylic acid], with 1 to 20 nM.
The compound `COc1cc2c(cc1Cl)-c1c(cc(C(=O)O)c(=O)n1C1CC1)[C@H](C1(C)COC1)O2` [Compound 67, (5R)-9-chloro-1-cyclopropyl-8-methoxy-5-(3-methyloxetan-3-yl)-2-oxo-5H-chromeno[4,3-b]pyridine-3-carboxylic acid] gave an IC50 of 0.001 to 1 nM.
On to `CC1(C2Oc3cc(OCC(F)(F)F)c(Cl)cc3-c3c2cc(C(=O)O)c(=O)n3C2CC2)COC1` (stereo not shown) [Compound 68, 9-chloro-1-cyclopropyl-5-(3-methyloxetan-3-yl)-2-oxo-8-(2,2,2-trifluoroethoxy)-5H-chromeno[4,3-b]pyridine-3-carboxylic acid], for which the IC50 was in the range of 0.001 to 1 nM.
The value for `CC1(C2Oc3cc(OC[C@H]4COCCO4)c(Cl)cc3-c3c2cc(C(=O)O)c(=O)n3C2CC2)COC1` (stereo partly drawn) [Compound 69, 9-chloro-1-cyclopropyl-8-[[(2R)-1,4-dioxan-2-yl]methoxy]-5-(3-methyloxetan-3-yl)-2-oxo-5H-chromeno[4,3-b]pyridine-3-carboxylic acid] was 0.001 to 1 nM; that for `CC1(C2Oc3cc(OC(F)F)c(Cl)cc3-c3c2cc(C(=O)O)c(=O)n3C2CC2)COC1` (stereo not shown) [Compound 70, 9-chloro-1-cyclopropyl-8-(difluoromethoxy)-5-(3-methyloxetan-3-yl)-2-oxo-5H-chromeno[4,3-b]pyridine-3-carboxylic acid] was 1 to 20 nM.
The value for `COCCCOc1cc2c(cc1Br)-c1c(cc(C(=O)O)c(=O)n1C1CC1)C(C(C)C)O2` (stereo not shown) [Compound 71, 9-bromo-1-cyclopropyl-5-isopropyl-8-(3-methoxypropoxy) -2-oxo-5H-chromeno[4,3-b]pyridine-3-carboxylic acid] was 0.001 to 1 nM; that for `CC1(C2Oc3cc(OCC4CN(S(C)(=O)=O)C4)c(Cl)cc3-c3c2cc(C(=O)O)c(=O)n3C2CC2)COC1` (stereo not shown) [Compound 72, 9-chloro-1-cyclopropyl-5-(3-methyloxetan-3-yl)-8-[(1-methylsulfonylazetidin-3-yl)methoxy]-2-oxo-5H-chromeno[4,3-b]pyridine-3-carboxylic acid] was 1 to 20 nM; that for `COc1cc2c(cc1OC)-c1c(cc(C(=O)O)c(=O)n1C1CC1)C(CSC)O2` (stereo not shown) [Compound 74, 1-cyclopropyl-8,9-dimethoxy-5-(methylsulfanylmethyl)-2-oxo-5H-chromeno[4,3-b]pyridine-3-carboxylic acid] was > 100 nM.

Source of the values: patent publication EP3720857B1, “2-OXO-5H-CHROMENO[4,3-B]PYRIDINES FOR USE IN THE TREATMENT OF HEPATITIS B” (Galapagos NV, priority 2017, dated 2019).
